Data taken from patent US11166958B2, “4-pyrazin-2-ylmethyl-morpholine derivatives and the use thereof as medicament” (Boehringer Ingelheim International GmbH, priority 2018, dated 2021).

How the values were obtained:
[1] = target: human MDR1 (P-gp) (Homo sapiens (Human), UniProt P08183); assay: MDCK assay P-gp: permeability across MDCK-MDR1 monolayers; assay type: in vitro ADME; conditions: for Papp A→B at 2 h: MDCK-MDR1, apical-to-basal, pH 7.4; for efflux ratio at 2 h: pH 7.4, MDCK-MDR1, Papp (b-a) / Papp (a-b), read-out: efflux ratio PEBA/PEAB
Method: The MDCK assays provide information on the potential of a compound to pass the blood brain barrier. Permeability measurements across polarized, confluent MDCK-MDR1 cell monolayers grown on permeable filter supports are used as an in vitro absorption model: apparent permeability coefficients (PE) of the compounds across the MDCK-MDR1 cell monolayers are measured (pH 7.4, 37° C.) in apical-to-basal (AB) and basal-to-apical (BA) transport direction. The AB permeability (PEAB) represents drug absorption from the blood into the brain and the BA permeability (PEBA) drug efflux from the brain back into the blood via both, passive permeability as well as active transport mechanisms mediated by efflux and uptake transporters that are expressed on the MDCK-MDR1 cells, predominantly by the overexpressed human MDR1. Identical or similar permeabilities in both transport directions indicate passive permeation (PEBA/PEAB≤1), vectorial permeability points to additional active transport mechanisms. Higher PEBA than PEAB (PEBA/PEAB>5) indicates the involvement of active efflux mediated by MDR1, which might compromise the goal to achieve sufficient brain exposure. Therefore, this assay provides valuable support for selection of compounds applicable for further in vivo testing. High permeability not limited by efflux at the blood brain barrier is a favourable characteristic for compounds that are to be used for drugs acting primarily in the CNS.
Apparent permeability coefficients (Papp) of the compounds across the MDCK-MDR1 monolayers (MDCKII cells transfected with human MDR1 cDNA expression plasmid) are measured in apical-to-basal (AB) and basal-to-apical (BA) direction.
MDCK-MDR1 cells (6×10^5 cells/cm^2) are seeded on filter inserts (Corning, Transwell, polycarbonate, 0.4 μm pore size) and cultured for 9 to 10 days. Compounds dissolved in DMSO stock solution (1-20 mM) are diluted with HTP-4 aqueous buffer (128.13 mM NaCl, 5.36 mM KCl, 1 mM MgSO4, 1.8 mM CaCl2, 4.17 mM NaHCO3, 1.19 mM Na2HPO4, 0.41 mM NaH2PO4, 15 mM HEPES, 20 mM glucose, pH 7.4) supplemented with 0.25% BSA to prepare the transport solutions (final concentration: 1 or 10 μM, final DMSO<=0.5%). The transport solution is applied to the apical or basolateral donor side for measuring A-B or B-A permeability, respectively. The receiver side contains HTP-4 buffer supplemented with 0.25% BSA. Samples are collected at the start and end of experiment from the donor and at various time intervals for up to 2 hours also from the receiver side for concentration measurement by HPLC-MS/MS (RapidFire High-throughput MS System (Agilent) coupled to QTrap 6500 (AB Sciex) or TSQ Vantage (Thermo Scientific)). Sampled receiver volumes are replaced with fresh receiver solution. Efflux ratio is calculated dividing the Papp (b-a) values by the Papp (a-b) values.

[2] = Metabolic stability in pooled human liver microsomes; assay type: in vitro ADME; conditions: pH 7.6, 1 μM compound, 1 mg/mL microsomal protein, 37° C., NADPH, read-out: Half-life − t½ human liver microsomes
Description: Stability in human liver microsomes refers to the susceptibility of compounds to biotransformation in the context of selecting and/or designing drugs with favorable pharmacokinetic properties. The primary site of metabolism for many drugs is the liver. Human liver microsomes contain the cytochrome P450s (CYPs), and thus represent a model system for studying drug metabolism in vitro Enhanced stability in human liver microsomes is associated with several advantages, including increased bioavailability and adequate half-life, which can enable lower and less frequent dosing of patients.
The metabolic degradation of the test compound was assayed at 37° C. with pooled human liver microsomes. The final incubation volume of 60 μl per time point contains TRIS buffer pH 7.6 at room temperature (0.1 M), magnesium chloride (5 mM aqueous solution), microsomal protein (1 mg/mL for human) and the test compound at a final concentration of 1 μM. Following a short preincubation period at 37° C., the reactions were initiated by addition of betanicotinamide adenine dinucleotide phosphate, reduced form (NADPH, 1 mM), and terminated by transferring an aliquot into acetonitril after different time points. After centrifugation (10000 g, 5 min), an aliquot of the supernatant was assayed by HPLC-MS/MS as described above for the MDCK assay P-gp for the amount of parent compound. The half-life was determined by the slope of the semi-logarithmic plot of the concentration-time profile.

Sequence of human MDR1 (P-gp) (P08183 whole entry): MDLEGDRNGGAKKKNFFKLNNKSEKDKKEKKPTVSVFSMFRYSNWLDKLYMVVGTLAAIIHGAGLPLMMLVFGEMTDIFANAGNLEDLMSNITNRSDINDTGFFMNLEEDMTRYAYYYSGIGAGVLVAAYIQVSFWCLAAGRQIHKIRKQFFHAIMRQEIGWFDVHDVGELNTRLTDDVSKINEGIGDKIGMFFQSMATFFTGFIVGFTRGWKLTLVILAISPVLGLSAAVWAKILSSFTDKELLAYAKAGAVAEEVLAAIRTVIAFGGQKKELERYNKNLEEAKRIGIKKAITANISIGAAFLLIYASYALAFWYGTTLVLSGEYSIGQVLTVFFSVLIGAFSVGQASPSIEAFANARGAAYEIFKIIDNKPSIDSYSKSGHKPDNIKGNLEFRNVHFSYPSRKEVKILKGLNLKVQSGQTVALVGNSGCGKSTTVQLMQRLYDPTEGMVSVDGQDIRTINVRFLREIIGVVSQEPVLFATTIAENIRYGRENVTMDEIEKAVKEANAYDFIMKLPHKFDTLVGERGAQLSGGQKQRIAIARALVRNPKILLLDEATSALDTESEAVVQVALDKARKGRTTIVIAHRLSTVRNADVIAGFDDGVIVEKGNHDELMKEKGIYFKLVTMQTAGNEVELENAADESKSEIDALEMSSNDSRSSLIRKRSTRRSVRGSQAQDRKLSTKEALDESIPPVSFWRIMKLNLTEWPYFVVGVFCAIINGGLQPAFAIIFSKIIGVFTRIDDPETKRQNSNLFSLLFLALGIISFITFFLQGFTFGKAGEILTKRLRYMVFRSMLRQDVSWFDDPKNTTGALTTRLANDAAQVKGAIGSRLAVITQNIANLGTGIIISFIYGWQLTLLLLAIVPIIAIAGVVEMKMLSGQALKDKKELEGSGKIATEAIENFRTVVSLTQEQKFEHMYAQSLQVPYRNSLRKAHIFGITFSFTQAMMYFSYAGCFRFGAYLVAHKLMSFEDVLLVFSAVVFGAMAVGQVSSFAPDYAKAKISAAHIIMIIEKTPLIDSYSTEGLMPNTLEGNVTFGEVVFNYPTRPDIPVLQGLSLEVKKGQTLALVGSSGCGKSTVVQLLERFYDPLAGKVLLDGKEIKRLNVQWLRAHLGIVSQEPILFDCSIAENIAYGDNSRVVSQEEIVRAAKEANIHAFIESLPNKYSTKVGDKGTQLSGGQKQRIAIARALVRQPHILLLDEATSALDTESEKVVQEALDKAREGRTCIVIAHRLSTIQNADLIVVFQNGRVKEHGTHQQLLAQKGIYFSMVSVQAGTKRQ

In the case of `CNC(=O)[C@@H]1CN(Cc2cnc(Oc3ccc(F)cc3)cn2)CCO1` [Example 1], the Papp A→B at 2 h [1] is reported as 59 ×10⁻⁶ cm/s, the efflux ratio at 2 h [1] is reported as 0.7 and the half-life at 1 µM [2] is reported as > 2.17 h.

With `CNC(=O)[C@@H]1CN(Cc2cnc(Oc3ccc(C)cc3F)cn2)CCO1` [Example 2] the Papp A→B at 2 h [1] was 76 ×10⁻⁶ cm/s, the efflux ratio at 2 h [1] was 0.6 and the half-life at 1 µM [2] was > 2.17 h.

In the case of `CNC(=O)[C@@H]1CN(Cc2cnc(Oc3ccc(C)cc3)cn2)CCO1` [Example 3], the Papp A→B at 2 h [1] is reported as 75 ×10⁻⁶ cm/s, the efflux ratio at 2 h [1] is reported as 0.7 and the half-life at 1 µM [2] is reported as > 2.17 h.

With `CNC(=O)[C@@H]1CN(Cc2cnc(Oc3ccc(C)cc3C)cn2)CCO1` [Example 4] the Papp A→B at 2 h [1] was 61 ×10⁻⁶ cm/s, the efflux ratio at 2 h [1] was 0.7 and the half-life at 1 µM [2] was > 2.17 h.

For `CNC(=O)[C@@H]1CN(Cc2cnc(Oc3ccc(Cl)cc3F)cn2)CCO1` [Example 5], the Papp A→B at 2 h [1] was 59 ×10⁻⁶ cm/s, the efflux ratio at 2 h [1] was 0.8 and the half-life at 1 µM [2] was > 2.17 h.

In the case of `CNC(=O)[C@@H]1CN(Cc2cnc(Oc3ccc(F)cc3F)cn2)CCO1` [Example 6], the Papp A→B at 2 h [1] is reported as 71 ×10⁻⁶ cm/s, the efflux ratio at 2 h [1] is reported as 0.8 and the half-life at 1 µM [2] is reported as > 2.17 h.

With `CNC(=O)[C@@H]1CN(Cc2cnc(Oc3ccc(Cl)cc3)cn2)CCO1` [Example 7] the Papp A→B at 2 h [1] was 66 ×10⁻⁶ cm/s, the efflux ratio at 2 h [1] was 0.7 and the half-life at 1 µM [2] was > 2.17 h.

With `CNC(=O)[C@@H]1CN(Cc2cnc(Oc3ccc(F)cc3C)cn2)CCO1` [Example 8] the Papp A→B at 2 h [1] was 70 ×10⁻⁶ cm/s, the efflux ratio at 2 h [1] was 0.6 and the half-life at 1 µM [2] was > 2.17 h.

In the case of `CNC(=O)[C@@H]1CN(Cc2cnc(Oc3ccccc3F)cn2)CCO1` [Example 9], the Papp A→B at 2 h [1] is reported as 62 ×10⁻⁶ cm/s, the efflux ratio at 2 h [1] is reported as 0.9 and the half-life at 1 µM [2] is reported as > 2.17 h.

In the case of `CNC(=O)[C@@H]1CN(Cc2cnc(Oc3ccccc3Cl)cn2)CCO1` [Example 18], the Papp A→B at 2 h [1] is reported as 61 ×10⁻⁶ cm/s, the efflux ratio at 2 h [1] is reported as 0.8 and the half-life at 1 µM [2] is reported as > 2.17 h.

For `CCNC(=O)[C@@H]1CN(Cc2cnc(Oc3ccc(F)cc3F)cn2)CCO1` [Example 30], the Papp A→B at 2 h [1] was 81 ×10⁻⁶ cm/s, the efflux ratio at 2 h [1] was 0.4 and the half-life at 1 µM [2] was > 2.17 h.

For `CCNC(=O)[C@@H]1CN(Cc2cnc(Oc3ccc(C)cc3F)cn2)CCO1` [Example 31], the Papp A→B at 2 h [1] was 66 ×10⁻⁶ cm/s, the efflux ratio at 2 h [1] was 0.6 and the half-life at 1 µM [2] was > 2.17 h.

In the case of `CCNC(=O)[C@@H]1CN(Cc2cnc(Oc3ccccc3Cl)cn2)CCO1` [Example 33], the Papp A→B at 2 h [1] is reported as 59 ×10⁻⁶ cm/s, the efflux ratio at 2 h [1] is reported as 0.7 and the half-life at 1 µM [2] is reported as > 2.17 h.
